Assay results: patent US7923025B2, “Pharmaceutical composition for oral use with improved absorption” (Astellas Pharma Inc., priority 2003, dated 2011)

Test: Gastrointestinal absorption of insulin, rat intestinal loop, plasma glucose (Experiment 1)
Format: in vivo, Wistar male rats
Procedure: Then 0.25 ml blood was collected from the jugular vein 0, 0.5, 1, 1.5, 2 and 3 hours after administration and the plasma glucose concentration was determined. The reduction in the plasma glucose concentration (D, % of initial*h) up to three hours after administration was calculated with the plasma glucose concentration before administration being 100. D was calculated by subtracting the plasma glucose area under concentration (% of initial*h) up to 3 hours after administration from the AUC with administration of normal saline only.
On the other hand, by way of comparison, a liquid of 6 mg bovine insulin dissolved in 20 ml normal saline liquid was administered to a large intestine loop in an amount corresponding to 600 μg/kg insulin, or as the control, 2 ml normal saline were administered to a large intestine loop and the plasma glucose concentration was determined as described above (Glucose CII Test Wako, Wako Pure Chemical Industries, Ltd.).

Substance: Comparison (E-SD not administered): 6 mg bovine insulin dissolved in 20 ml normal saline, without E-SD
- AUC (plasma glucose) (rat intestinal loop, up to 3 hours after administration): 368.84 ± 63.19 % of initial*h
- D (reduction in the plasma glucose concentration) (up to 3 hours, AUC with normal saline only minus AUC): 13.00 % of initial*h
